Laboratory results reported in US8420630B2 (Boehringer Ingelheim Pharma GmbH & Co. KG, priority 2001, dated 2013).

Target: T1, CDK1/cyclinB1 (Homo sapiens, UniProt P06493)
T1 construct: made in house; host or cells: High Five insect cells (Trichoplusia ni), baculovirus coinfection
Experiment: Cyclin B1-CDK1 kinase inhibition test
Assay type: biochemical
Details: CDK1 tests (Example 13); recombinant cyclin B1/CDK1, substrate histone H1; read-out: CDK1/cyclinB1 IC50 value
Protocol: CDK4) were cloned by standard methods using RT-PCR, and cloned into a transfer vector (cyclin in pAcG2T made by Pharmingen, CDKs in p2Bac made by Invitrogen) for the baculovirus system. […] After thawing the cells were resuspended in lysing buffer (50 mM HEPES pH 7.5, 10 mM MgCl2, 1 mM DTT, 5 μg/ml leupeptin, 5 μg/ml aprotinin, 100 μM NaF, 100 μM PMSF, 10 mM β-glycerolphosphate, 100 μM Na3VO4, 30 mM nitrophenylphosphate, 17.5 ml of lysing buffer per 10^8 cells) and incubated on ice for 30 min. […] Cyclin D1-CDK4 was purified by means of a GST-tag on cyclin D1 and then using glutathione beads (total protein about 0.2 mg/ml). All the kinase tests were carried out in 96-well microtitre plates (Greiner PS) in a final volume of 60 μl. […] As a negative control the kinase reaction was carried out in the absence of the substrate histone H1. As a positive control the kinase reaction was carried out in the absence of a test substance. As an internal control 30 μM and 300 μM (final concentration) of the kinase inhibitor olomoucin (Alexis) were used. […] The kinase reaction is started by the addition of 10 μl of ATP mix (0.045 mM ATP, 0.5 μCi ^33P-ATP in kinase buffer) and incubated for 30 min at 30° C. and 600 rpm in a shaking incubator. After incubation the plates were placed on ice and the proteins were precipitated by the addition of 125 μl of ice-cold 5% trichloroacetic acid. After 15 min on ice the precipitates were transferred onto Packard Unifilter 96 GF/B plates with the Packard Harvester System, and collected by vacuum filtration. The precipitates were washed 4 times with dist. H2O at ambient temperature. The filter plates were then dried at 60° C. and 50 μl of scintillation liquid were added to each well (Ultima Gold, Packard). The plate was sealed up with Sealing Tape and after 1 h measured in a scintillation measuring apparatus (Micro Beta made by Wallac).

T1 sequence (P06493 whole entry): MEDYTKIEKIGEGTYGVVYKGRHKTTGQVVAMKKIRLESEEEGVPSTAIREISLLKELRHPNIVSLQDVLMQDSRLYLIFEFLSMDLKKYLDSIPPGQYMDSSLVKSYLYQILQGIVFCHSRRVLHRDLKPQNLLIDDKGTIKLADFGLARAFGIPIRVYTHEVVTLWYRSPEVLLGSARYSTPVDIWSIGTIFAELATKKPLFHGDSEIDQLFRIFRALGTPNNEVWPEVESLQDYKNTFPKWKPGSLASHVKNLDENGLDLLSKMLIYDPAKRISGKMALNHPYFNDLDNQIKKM
T1 sequence (P14635 whole entry partner): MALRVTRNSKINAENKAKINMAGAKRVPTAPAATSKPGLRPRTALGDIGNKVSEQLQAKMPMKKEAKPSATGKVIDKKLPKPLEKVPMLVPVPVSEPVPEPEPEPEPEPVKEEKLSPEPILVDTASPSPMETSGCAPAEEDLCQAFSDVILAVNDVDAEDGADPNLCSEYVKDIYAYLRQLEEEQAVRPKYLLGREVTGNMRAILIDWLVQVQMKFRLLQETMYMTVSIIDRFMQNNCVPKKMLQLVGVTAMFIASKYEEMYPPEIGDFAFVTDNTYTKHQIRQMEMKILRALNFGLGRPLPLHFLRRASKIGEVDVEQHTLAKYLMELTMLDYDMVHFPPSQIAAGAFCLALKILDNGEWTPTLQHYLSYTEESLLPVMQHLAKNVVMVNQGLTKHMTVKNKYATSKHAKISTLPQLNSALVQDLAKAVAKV

| SMILES | IC50 |
| --- | --- |
| CC(=O)NCC1CCCN(c2nc(Nc3ccc(Cl)c(Cl)c3)ncc2C(F)(F)F)C1 (centres unmarked) [Example 1(040), 2-(3,4-dichloro-phenylamino)-4-(3-acetylaminomethyl-piperidin-1-yl)-5-trifluoromethyl-pyrimidine] | < 100 nM |
| O=C1CCCN1CCCNc1nc(Nc2ccc(Cl)c(Cl)c2)ncc1C(F)(F)F [Example 1(041), 2-(3,4-dichloro-phenylamino)-4-(3-(2-oxo-pyrrolidin-1-yl)-propyl-1-amino)-5-trifluoromethyl-pyrimidine] | < 100 nM |
| NCC1CCN(c2nc(Nc3ccc(Br)cc3)ncc2C(F)(F)F)CC1 [Example 1(043)] | < 100 nM |
| OCCCCCNc1nc(Nc2ccc(Cl)c(Cl)c2)ncc1C(F)(F)F [Example 1(045), 2-(3,4-dichloro-phenylamino)-4-(5-hydroxy-1-pentylamino)-5-trifluoromethyl-pyrimidine] | < 100 nM |
| O=C(O)CCc1ccc(Nc2ncc(C(F)(F)F)c(NCCc3cccc(O)c3)n2)cc1 [Example 1(046), 2-(4-(2-carboxy-1-ethyl)-phenylamino)-4-(2-(3-hydroxyphenyl)-1-ethyl-amino)-5-trifluoromethyl-pyrimidine] | < 100 nM |
| O=C1CCCN1CCCNc1nc(Nc2cccc(Br)c2)ncc1C(F)(F)F [Example 1(047), 2-(3-bromo-phenylamino)-4-(3-(2-oxo-pyrrolidin-1-yl)-propyl-1-amino)-5-trifluoromethyl-pyrimidine] | < 100 nM |
| O=C1CCCN1CCCNc1nc(Nc2cc(Cl)cc(Cl)c2)ncc1C(F)(F)F [Example 1(049), 2-(3,5-dichloro-phenylamino)-4-(3-(2-oxo-pyrrolidin-1-yl)-propyl-1-amino)-5-trifluoromethyl-pyrimidine] | < 100 nM |
| COc1cc(C(O)CNc2nc(Nc3ccc(Cl)c(Cl)c3)ncc2C(F)(F)F)ccc1O (centres unmarked) [Example 1(053), 2-(3,4-dichloro-phenylamino)-4-(2-(4-hydroxy-3-methoxy-phenyl)-2-hydroxy-1-ethylamino)-5-trifluoromethyl-pyrimidine] | < 100 nM |
| CN(C)[C@H]1CC[C@H](Nc2nc(Nc3ccc(C(=O)O)cc3)ncc2C(F)(F)F)CC1 [Example 1(054), 2-(4-carboxy-phenylamino)-4-(trans-4-dimethylamino-cyclohexylamino)-5-trifluoromethyl-pyrimidine] | < 100 nM |
| O=C1CCCN1CCCNc1nc(Nc2cccc(Cl)c2)ncc1C(F)(F)F [Example 1(067), 2-(3-chloro-phenylamino)-4-(3-(2-oxo-pyrrolidin-1-yl)-propyl-1-amino)-5-trifluoromethyl-pyrimidine] | < 100 nM |
| NCCCCCNc1nc(Nc2cccc(Cl)c2)ncc1C(F)(F)F [Example 1(077), 2-(3-chloro-phenylamino)-4-(5-amino-1-pentylamino)-5-trifluoromethyl-pyrimidine] | < 100 nM |
| NCCCCCNc1nc(Nc2ccc(Cl)cc2)ncc1C(F)(F)F [Example 1(079), 2-(4-chloro-phenylamino)-4-(5-amino-pentyl-1-amino)-5-trifluoromethyl-pyrimidine] | < 100 nM |
| FC(F)(F)c1cnc(Nc2ccc(Cl)c(Cl)c2)nc1NCCN1CCOCC1 [Example 1(104), 2-(3,4-dichloro-phenylamino)-4-(2-morpholino-1-ethylamino)-5-trifluoromethyl-pyrimidine] | < 100 nM |
| NC1CCC(Nc2nc(Nc3ccc(C(=O)O)cc3)ncc2C(F)(F)F)CC1 (centres unmarked) [Example 1(111), 2-(4-carboxyphenylamino)-4-(4-amino-cyclohexylamino)-5-trifluoromethyl-pyrimidine] | < 100 nM |
| O=C(O)CCc1ccc(Nc2ncc([N+](=O)[O-])c(N3CCc4[nH]cnc4C3)n2)cc1 [Example 1(112), 2-(4-(2-carboxy-1-ethyl)-phenylamino)-4-(1,4,6,7-tetrahydro-imidazo[4,5-c]pyridin-5-yl)-5-nitro-pyrimidine] | < 100 nM |
| Nc1c(Cl)cc(Nc2ncc([N+](=O)[O-])c(N3CCc4[nH]cnc4C3)n2)cc1Cl [Example 1(113), 2-(4-amino-3,5-dichlorophenylamino)-4-(1,4,6,7-tetrahydro-imidazo[4,5-c]pyridin-5-yl)-5-nitro-pyrimidine] | < 100 nM |
| O=[N+]([O-])c1cnc(Nc2ccc(Br)cc2)nc1N1CCc2[nH]cnc2C1 [Example 1(116), 2-(4-bromophenylamino)-4-(1,4,6,7-tetrahydro-imidazo[4,5-c]pyridin-5-yl)-5-nitro-pyrimidine] | < 100 nM |

Further lines, results first:

| IC50 | SMILES |
| --- | --- |
| < 100 nM | NCC1CCN(c2nc(Nc3cccc(Br)c3)ncc2[N+](=O)[O-])CC1 [Example 1(042), 2-(3-bromo-phenylamino)-4-(4-aminomethyl-piperidin-1-yl)-5-nitro-pyrimidine] |
| < 100 nM | CN1CCC(N(C)c2nc(Nc3ccc(Cl)cc3)ncc2[N+](=O)[O-])CC1 [Example 1(044), 2-(4-chloro-phenylamino)-4-(N-(1-methyl-piperidin-4-yl)-N-methyl-amino)-5-nitro-pyrimidine] |
| < 100 nM | O=[N+]([O-])c1cccc(Nc2ncc([N+](=O)[O-])c(N3CCCC(CO)C3)n2)c1 (centres unmarked) [Example 1(050), 2-(3-nitro-phenylamino)-4-(3-hydroxymethyl-piperidin-1-yl)-5-nitro-pyrimidine] |
| < 100 nM | CC(=O)N(C)CC1CCN(c2nc(Nc3ccc(Cl)cc3)ncc2[N+](=O)[O-])CC1 [Example 1(052), 2-(4-chloro-phenylamino)-4-(4-(N-acetyl-N-methyl-aminomethyl)-piperidin-1-yl)-5-nitro-pyrimidine] |
| < 100 nM | O=[N+]([O-])c1cnc(Nc2ccc(Cl)cc2)nc1N1CCC[C@H]1CO [Example 1(055), 2-(4-chloro-phenylamino)-4-((2S)-2-hydroxymethyl-pyrrolidin-1-yl)-5-nitro-pyrimidine] |
| < 100 nM | NCCCOCCCNc1nc(Nc2ccc(Cl)c(Cl)c2)ncc1C(F)(F)F [Example 1(073)] |
| < 100 nM | NCCNc1nc(Nc2ccc(Cl)c(Cl)c2)ncc1C(F)(F)F [Example 1(080), 2-(3,4-dichloro-phenylamino)-4-(2-amino-1-ethylamino)-5-trifluoromethyl-pyrimidine] |
| < 100 nM | NCC1CCC(CNc2nc(Nc3cccc(Br)c3)ncc2C(F)(F)F)CC1 (centres unmarked) [Example 1(088), 2-(3-bromo-phenylamino)-4-(4-aminomethyl-cyclohexylmethylamino)-5-trifluoromethyl-pyrimidine] |
| < 100 nM | COCCNc1nc(Nc2ccc(Cl)c(Cl)c2)ncc1C(F)(F)F [Example 1(093), 2-(3,4-dichloro-phenylamino)-4-(2-methoxy-1-ethylamino)-5-trifluoromethyl-pyrimidine] |
| < 100 nM | NCC1CCC(CNc2nc(Nc3ccc(Cl)cc3)ncc2C(F)(F)F)CC1 (centres unmarked) [Example 1(107), 2-(4-chloro-phenylamino)-4-(4-aminomethyl-cyclohexylmethylamino)-5-trifluoromethyl-pyrimidine] |
| < 100 nM | NC1CCC(Nc2nc(Nc3ccc(Cl)c(Cl)c3)ncc2C(F)(F)F)CC1 (centres unmarked) [Example 1(109), 2-(3,4-dichlorophenylamino)-4-(4-amino-cyclohexylamino)-5-trifluoromethyl-pyrimidine] |
| < 100 nM | Cc1cc(Nc2ncc([N+](=O)[O-])c(NCC3CCC(CN)CC3)n2)ccc1Cl (centres unmarked) [Example 1(115), 2-(4-chloro-3-methyl-phenylamino)-4-(4-aminomethyl-cyclohexylmethylamino)-5-nitro-pyrimidine] |
